{"source": "patent US20100056615A1", "about": "“USE OF TRICYCLIC DITERPENES AND THEIR DERIVATIVES FOR THE TREATMENT, CO-TREATMENT OR PREVENTION OF INFLAMMATORY DISORDERS AND/OR JOINT DISORDERS” (priority 2006, published 2010)", "experiment_in_all_cases": "Gene expression in human chondrocyte cells (SW1353), quantitative real-time PCR", "assay_type_in_all_cases": "cell-based", "conditions_in_all_cases": "12.5 μM compound, SW1353 chondrocytes, IL-1β treated", "key": {"Human MMP-3": {"tested_on": "Human MMP-3", "protocol": "The cells were treated with IL-1β, which is one of the natural mediators that induce cartilage breakdown and is detected in substantial amounts in osteoarthritic cartilage tissues and cells derived thereof. Treatment of cells with IL-1β triggers the expression of genes that are involved in catabolic events, such as MMPs. Also, treatment of the cells with IL-1β reduces the collagen expression levels (compared to untreated cells)\nChondrocytes (SW1353; purchased from the […] [ATCC]) were grown in cell culture medium according to the instructions from ATCC. For experimental treatments, cells were seeded into 6-well plates and cultured for two days until they reached confluence. Total cellular RNA was extracted from cultured cells and reverse-transcribed as described by Richard et al. Mol. Nutr. Food Res. 49, 431-442, 2005. Expression levels of distinct genes were determined by quantitative real-time PCR as described in Richard et al. Mol. Nutr. Food Res. 49, 431-442, 2005."}, "Aggrecan": {"tested_on": "Aggrecan", "protocol": "(§1) The cells were treated with IL-1β, which is one of the natural mediators that induce cartilage breakdown and is detected in substantial amounts in osteoarthritic cartilage tissues and cells derived thereof. Treatment of cells with IL-1β triggers the expression of genes that are involved in catabolic events, such as MMPs.\n(§2) Chondrocytes (SW1353; purchased from the […] [ATCC]) were grown in cell culture medium according to the instructions from ATCC. For experimental treatments, cells were seeded into 6-well plates and cultured for two days until they reached confluence. Total cellular RNA was extracted from cultured cells and reverse-transcribed as described by Richard et al. Mol. Nutr. […] Expression levels of distinct genes were determined by quantitative real-time PCR as described in Richard et al. Mol. Nutr."}, "Human MMP-13": {"tested_on": "Human MMP-13", "protocol": "as §1, §2"}, "Human MMP-1": {"tested_on": "Human MMP-1", "protocol": "as §1, §2"}, "Human collagen I": {"tested_on": "Human collagen I", "protocol": "as §1, §2"}, "Human collagen II": {"tested_on": "Human collagen II", "protocol": "as §1, §2"}}, "data": [{"molecule": "CC(C)c1cc2c(c(O)c1O)C1=C(CC2)C(C)(C)CCC1=O", "note": "[Sageone (VII), Sageone]", "values": [{"measurement": "Human MMP-3 gene expression level relative to cells treated without the compound", "setting": "Human MMP-3", "result": 112, "unit": "%"}, {"measurement": "Aggrecan gene expression level relative to cells treated without the compound", "setting": "Aggrecan", "result": 152, "unit": "%"}, {"measurement": "Human MMP-13 gene expression level relative to cells treated without the compound", "setting": "Human MMP-13", "result": 36, "unit": "%"}, {"measurement": "Human MMP-1 gene expression level relative to cells treated without the compound", "setting": "Human MMP-1", "result": 3, "unit": "%"}, {"measurement": "Human collagen I gene expression level relative to cells treated without the compound", "setting": "Human collagen I", "result": 120, "unit": "%"}]}, {"molecule": "COc1c(C(C)C)cc2c(c1O)[C@@]1(C(=O)O)CCCC(C)(C)[C@@H]1CC2", "note": "[Carnosic acid-12-methyl ether (XII), Carnosic acid 12-methylether]", "values": [{"measurement": "Human MMP-3 gene expression level relative to cells treated without the compound", "setting": "Human MMP-3", "result": 69, "unit": "%"}, {"measurement": "Human collagen II gene expression level relative to cells treated without the compound", "setting": "Human collagen II", "result": 139, "unit": "%"}, {"measurement": "Aggrecan gene expression level relative to cells treated without the compound", "setting": "Aggrecan", "result": 123, "unit": "%"}, {"measurement": "Human MMP-13 gene expression level relative to cells treated without the compound", "setting": "Human MMP-13", "result": 60, "unit": "%"}, {"measurement": "Human MMP-1 gene expression level relative to cells treated without the compound", "setting": "Human MMP-1", "result": 94, "unit": "%"}]}]}
